Assays:
human CYP11B2 = target: T1, human CYP11B2 (Homo sapiens, UniProt P19099); experiment: G-402 cellular enzyme assay, human CYP11B2 (aldosterone release, HTRF); format: cell-based; settings: G-402 cells expressing human CYP11B2; 1 μM Deoxycorticosterone
T1 construct: expressed in transfected cells
T1 sequence (P19099 25-503): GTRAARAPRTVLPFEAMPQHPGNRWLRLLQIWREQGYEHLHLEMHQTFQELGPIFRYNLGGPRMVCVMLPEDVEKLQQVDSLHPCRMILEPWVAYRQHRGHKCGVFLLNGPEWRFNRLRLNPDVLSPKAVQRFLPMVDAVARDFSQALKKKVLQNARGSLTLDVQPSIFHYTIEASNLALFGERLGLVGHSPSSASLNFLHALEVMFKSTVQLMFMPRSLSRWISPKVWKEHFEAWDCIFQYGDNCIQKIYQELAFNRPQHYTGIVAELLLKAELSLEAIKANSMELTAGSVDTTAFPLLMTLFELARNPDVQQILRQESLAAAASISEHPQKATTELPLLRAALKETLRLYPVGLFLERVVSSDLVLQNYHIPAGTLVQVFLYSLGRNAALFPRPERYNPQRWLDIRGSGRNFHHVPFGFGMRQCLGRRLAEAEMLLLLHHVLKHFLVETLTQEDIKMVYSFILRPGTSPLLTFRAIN
Excerpt: (§1) Herein we identified the use of the G-402 cell line as a host cell to ectopically express (transiently or stably) enzymes of the CYP11 family. Specifically we developed stable G-402 cells expressing ectopically human CYP11B1, human CYP11B2, human CYP11A1, cynomolgus CYP11B1 or cynomolgus CYP11B2 enzyme activity. Importantly the identified cell line G-402 expresses co-factors (adrenodoxin and adrenodoxin reductase) important for the activity of the CYP11 family and no relevant enzyme activity of the CYP11 family (in comparison to H295R cells) was detected in these cells. Therefore the G-402 cell line is uniquely suited as a host cell for the ectopic expression of enzymes from the CYP11 family.
(§2) G-402 cells can be obtained from ATCC(CRL-1440) and were originally derived from a renal leiomyoblastoma.
(§3) The expression plasmids contains the ORF for either human/cyno CYP11B1 or CYP11B2 under the control of a suitable promoter (CMV-promoter) and a suitable resistance marker (neomycin). Using standard techniques the expression plasmid is transfected into G-402 cells and these cells are then selected for expressing the given resistance markers. Individual cell-clones are then selected and assessed for displaying the desired enzymatic activity using 11-Deoxycorticosterone (Cyp11B2) or 11-Deoxycortisol (Cyp11B1) as a substrate.
(§4) G-402 cells expressing CYP11 constructs were established as described above and maintained in McCoy's 5a Medium Modified, ATCC Catalog No. 30-2007 containing 10% FCS and 400 μg/ml G418 (Geneticin) at 37° C. under an atmosphere of 5% CO2/95% air. Cellular enzyme assays were performed in DMEM/F12 medium containing 2.5% charcoal treated FCS and appropriate concentration of substrate (0.3-10 uM 11-Deoxycorticosterone, 11-Deoxycortisol or Corticosterone). For assaying enzymatic activity, cells were plated onto 96 well plates and incubated for 16 h. An aliquot of the supernatant is then transferred and analyzed for the concentration of the expected product (Aldosterone for CYP11B2; Cortisol for CYP11B1). The concentrations of these steroids can be determined using HTRF assays from CisBio analyzing either Aldosterone or Cortisol.
(§5) Inhibition of the release of produced steroids can be used as a measure of the respective enzyme inhibition by test compounds added during the cellular enzyme assay. The dose dependent inhibition of enzymatic activity by a compound is calculated by means of plotting added inhibitor concentrations (x-axes) vs. measured steroid/product level (y-axes). The inhibition is then calculated by fitting the following 4-parameter sigmoidal function (Morgan-Mercer-Flodin (MMF) model) to the raw data points using the least squares method:
(§6) [formula] wherein, A is the maximum y value, B is the EC50 factor determined using XLFit, C is the minimum y value and D is the slope value.
(§7) EC50 values for compounds claimed herein were tested with the G402-based assay system described. Cyp11B2 enzyme activity was tested in presence of 1 μM Deoxycorticosterone and variable amounts of inhibitors; Cyp11B1 enzyme activity was tested in presence of 1 μM Deoxycortisol and variable amounts of inhibitors.

human CYP11B1 = target: T2, human CYP11B1 (Homo sapiens, UniProt P15538); experiment: G-402 cellular enzyme assay, human CYP11B1 (cortisol release, HTRF); format: cell-based; settings: G-402 cells expressing human CYP11B1; 1 μM Deoxycortisol
T2 construct: expressed in transfected cells
T2 sequence (P15538 25-503): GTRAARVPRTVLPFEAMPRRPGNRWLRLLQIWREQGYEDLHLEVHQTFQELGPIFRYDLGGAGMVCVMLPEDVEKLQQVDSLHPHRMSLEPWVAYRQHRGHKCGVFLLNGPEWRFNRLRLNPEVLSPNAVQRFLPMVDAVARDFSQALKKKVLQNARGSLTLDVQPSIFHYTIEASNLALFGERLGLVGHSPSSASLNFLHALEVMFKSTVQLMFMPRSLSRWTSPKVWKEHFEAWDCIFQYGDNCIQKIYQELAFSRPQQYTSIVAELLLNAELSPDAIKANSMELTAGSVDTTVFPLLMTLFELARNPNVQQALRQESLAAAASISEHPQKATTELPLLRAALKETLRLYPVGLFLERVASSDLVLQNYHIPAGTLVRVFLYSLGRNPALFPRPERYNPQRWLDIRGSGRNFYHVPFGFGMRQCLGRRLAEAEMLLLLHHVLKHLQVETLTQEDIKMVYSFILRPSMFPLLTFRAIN
Excerpt: as §1, §2, §3, §4, §5, §6, §7

Structure (SMILES)	EC50 (human CYP11B2) [nM]	EC50 (human CYP11B1) [nM]
CN1C(=O)CCc2cc(-c3cncc(CN4CCC[C@H]4CO)c3)ccc21 [Example 7, 6-[5-((S)-2-Hydroxymethyl-pyrrolidin-1-ylmethyl)-pyridin-3-yl]-1-methyl-3,4-dihydro-1H-quinolin-2-one]	56	570
CN1C(=O)CCc2cc(-c3cncc(CNC(=O)c4ncccc4Cl)c3)ccc21 [Example 118, 3-Chloro-pyridine-2-carboxylic acid [5-(1-methyl-2-oxo-1,2,3,4-tetrahydro-quinolin-6-yl)-pyridin-3-ylmethyl]-amide]	4	682
CN1C(=O)CCc2cc(-c3cncc(CNC(=O)c4ccc(Cl)nn4)c3)ccc21 [Example 104]	10	94
CN1C(=O)CCc2cc(-c3cncc(CN4CCCC4=O)c3)ccc21 [Example 18]	58	750
CCS(=O)(=O)N1CC[C@@H](Oc2cncc(-c3cc4c(cc3F)N(C)C(=O)CC4)c2)C1 [Example 168, 6-[5-((R)-1-Ethanesulfonyl-pyrrolidin-3-yloxy)-pyridin-3-yl]-7-fluoro-1-methyl-3,4-dihydro-1H-quinolin-2-one]	14	273
Cc1noc(C)c1C(=O)NCc1cncc(-c2ccc3c(c2)CCC(=O)N3C)c1 [Example 75, 3,5-Dimethyl-isoxazole-4-carboxylic acid [5-(1-methyl-2-oxo-1,2,3,4-tetrahydro-quinolin-6-yl)-pyridin-3-ylmethyl]-amide]	8	509
CN1C(=O)CCc2cc(-c3cncc(N4CC5(CN(C(=O)OC(C)(C)C)C5)C4)c3)ccc21 [Example 29]	260	5560
Cc1nc(C(=O)NCc2cncc(-c3ccc4c(c3)CCC(=O)N4C)c2)c(C)o1 [Example 111]	4	81
CC(NC(=O)c1ncccc1Cl)c1cncc(-c2ccc3c(c2)CCC(=O)N3C)c1Cl (single isomer, unassigned) [Example 251, 3-Chloro-pyridine-2-carboxylic acid {(R or S)-1-[4-chloro-5-(1-methyl-2-oxo-1,2,3,4-tetrahydro-quinolin-6-yl)-pyridin-3-yl]-ethyl}-amide]	1	6
CCS(=O)(=O)NCc1cncc(-c2ccc3c(c2)CCC(=O)N3)c1 [Example 55, ethanesulfonic acid [5-(2-oxo-1,2,3,4-tetrahydro-quinolin-6-yl)-pyridin-3-ylmethyl]-amide]	682	11100
CN1C(=O)CCc2cc(-c3cncc(CNC(=O)c4cnn(C)c4)c3)ccc21 [Example 87, 1-Methyl-1H-pyrazole-4-carboxylic acid [5-(1-methyl-2-oxo-1,2,3,4-tetrahydro-quinolin-6-yl)-pyridin-3-ylmethyl]-amide]	17	1070
CC(C)S(=O)(=O)NCc1cncc(-c2ccc3c(c2)CCC(=O)N3C)c1 [Example 38, Propane-2-sulfonic acid [5-(1-methyl-2-oxo-1,2,3,4-tetrahydro-quinolin-6-yl)-pyridin-3-ylmethyl]-amide]	81	1500
CN1C(=O)CCc2cc(-c3cncc(CNC(=O)c4ccccn4)c3)ccc21 [Example 97]	6	111
CCS(=O)(=O)NCc1cncc(-c2ccc3c(c2)CCC(=O)N3C)c1 [Example 15]	19	1200
CN1C(=O)CCc2cc(-c3cncc(CN[S@+]([O-])C(C)(C)C)c3Cl)ccc21 [Example 217, (R)-2-Methyl-propane-2-sulfinic acid [4-chloro-5-(1-methyl-2-oxo-1,2,3,4-tetrahydro-quinolin-6-yl)-pyridin-3-ylmethyl]-amide]	29	1260
CCS(=O)(=O)N1CCC(Oc2cncc(-c3ccc4c(c3)CCC(=O)N4C)c2)CC1 [Example 161, 6-[5-(1-Ethanesulfonyl-piperidin-4-yloxy)-pyridin-3-yl]-1-methyl-3,4-dihydro-1H-quinolin-2-one]	1	8
Cc1noc(C)c1C(=O)NC(C)c1cncc(-c2ccc3c(c2)CCC(=O)N3C)c1Cl (single isomer, unassigned) [Example 257, 3,5-Dimethyl-isoxazole-4-carboxylic acid {(R or S)-1-[4-chloro-5-(1-methyl-2-oxo-1,2,3,4-tetrahydro-quinolin-6-yl)-pyridin-3-yl]-ethyl}-amide]	22	679
CN1C(=O)CCc2cc(-c3cncc(C4(N(C)C(=O)c5ncccc5Cl)CC4)c3)ccc21 [Example 201, 3-Chloro-pyridine-2-carboxylic acid methyl-{1-[5-(1-methyl-2-oxo-1,2,3,4-tetrahydro-quinolin-6-yl)-pyridin-3-yl]-cyclopropyl}-amide]	24	436
CCS(=O)(=O)NCc1cncc(-c2cc3c(cc2Cl)N(C)C(=O)CC3)c1 [Example 207, Ethanesulfonic acid [5-(7-chloro-1-methyl-2-oxo-1,2,3,4-tetrahydro-quinolin-6-yl)-pyridin-3-ylmethyl]-amide]	44	2540
Cc1noc(C)c1C(=O)NCc1cncc(-c2cc(Cl)c3c(c2)CCC(=O)N3)c1 [Example 205, 3,5-Dimethyl-isoxazole-4-carboxylic acid [5-(8-chloro-2-oxo-1,2,3,4-tetrahydro-quinolin-6-yl)-pyridin-3-ylmethyl]-amide]	97	4030
CN1C(=O)CCc2cc(-c3cncc(N4CCC[C@H]4Cn4cncn4)c3)ccc21 [Example 11]	76	410
CCS(=O)(=O)Nc1cncc(-c2ccc3c(c2)CCC(=O)N3C)c1 [Example 1, Ethanesulfonic acid [5-(1-methyl-2-oxo-1,2,3,4-tetrahydro-quinolin-6-yl)-pyridin-3-yl]-amide]	170	3700
Cc1c(CN(C)C(=O)c2ncccc2Cl)cncc1-c1ccc2c(c1)CCC(=O)N2C [Example 229, 3-Chloro-pyridine-2-carboxylic acid methyl-[4-methyl-5-(1-methyl-2-oxo-1,2,3,4-tetrahydro-quinolin-6-yl)-pyridin-3-ylmethyl]-amide]	10	656
CCS(=O)(=O)N1CC(Oc2cncc(-c3ccc4c(c3)CCC(=O)N4C)c2)C1 [Example 170, 6-[5-(1-Ethanesulfonyl-azetidin-3-yloxy)-pyridin-3-yl]-1-methyl-3,4-dihydro-1H-quinolin-2-one]	15	699

Source: patent US9260408B2, “Dihydroquinoline-2-one derivatives” (Hoffmann-La Roche Inc., priority 2011, dated 2016)
